In paper PMC4513130, “Neuronal Calcium Sensor-1 Binds the D2 Dopamine Receptor and G-protein-coupled Receptor Kinase 1 (GRK1) Peptides Using Different Modes of Interactions” (The Journal of Biological Chemistry, 2015):

Experiments:
[1] = Solubility and aggregation
[2] = tested on: NCS-1ΔCT; test: NMR (1H-15N HSQC) of Ca2+/NCS-1ΔCT, titration with D2R peptide; type: binding, rat; conditions: 15N Ca2+/NCS-1ΔCT alone
Description: NCS-1 was prepared in 50 mM Tris-HCl buffer, pH 6.8, in the presence of 5 mM MgCl2 and 5 mM CaCl2. NMR spectra were recorded at 27 °C on Bruker DRX 800 and 600 MHz Avance II spectrometers equipped with CryoProbes. Data were processed using the Bruker software TopSpin and analyzed using CCPN software ([26]). Sequence-specific backbones were obtained using the HNCA, HN(CO)CA, HNCO, HN(CA)CO, CBCA(CO)NH, CBCANH, HBHA(CO)NH, and HCCH-TOCSY experiments.
FIGURE 9. NMR spectra and structure of rat Ca^2+/NCS-1ΔCT (PDB code 4YRU). A,^1H-^15N heteronuclear single quantum coherence spectra of ^15N Ca^2+/NCS-1ΔCT; B, in the presence of 5-fold excess of D2R peptide in 50 mM Tris-HCl buffer, 50 mM NaCl, 5 mM CaCl2, pH 6.5, 298 K. C, structure of the dimer of NCS-1ΔCT. Left, one monomer is shown as a backbone schematic and the other as a surface representation. Right, view of the hydrophobic binding site. Residues from helix 3 and the EF1/EF2 loop (Phe-48–Phe-58) are colored red, and residues in the EF3/EF4 loop region (Val-136–Pro-139) are colored brown. Conserved hydrophobic surface-exposed residues in the N-lobe site, which are involved with binding the D2R peptide, are highlighted in yellow (similar to those highlighted in Fig. 4B). D2R peptide in the N-site is shown with magenta ribbon for comparison. Ca^2+ ions are shown as brown spheres.

[3] = Size exclusion chromatography-multiangle laser light scattering (MALLS); type: physicochemical; conditions: SEC-MALLS, Superdex 75; 20 mM Tris-HCl, 150 mM NaCl, 1 mM CaCl2, pH 7.5; 1.5 mg/ml injected
Description: Measurements were performed on a Dionex BioLC HPLC connected to an 18-angle light scattering detector and a differential refractometer (DAWN HELEOS-II and OPTILab rEX, Wyatt). A Superdex 75 10/300 GL column (GE Healthcare) was used in 20 mM Tris-HCl, 150 mM NaCl, 1 mM CaCl2, pH 7.5, at a flow rate of 0.75 ml/min. Sample volumes of 1 ml were injected at a concentration of 1.5 mg/ml. Samples eluting from the column passed through an in-line DAWN HELEOS-II laser photometer (λ = 658 nm) and an OPTILab rEX refractometer with a QELS dynamic light scattering attachment. Light scattering intensity and eluant refractive index (concentration) were analyzed using ASTRA version 5.3.4.13 software to give a weight-averaged molecular mass. To determine the detector delay volumes and normalization coefficients for the MALLS detector, a BSA sample (Sigma A-8531) was used as reference.

[4] = tested on: recoverin; conditions: NMR structure, PDB 2I94; orientation opposite to that in NCS-1·GRK1 complex; cited from earlier work
Text: The C-terminal α-helix in both complexes form one edge of the hydrophobic groove. […] Somewhat surprising are the differences observed between the NCS-1 ...

[5] = tested on: NCS-1; test: Crystal structure of peptide complex with Ca2+/NCS-1 (copies bound, buried surface area); type: binding, Rattus norvegicus
Description: Purified proteins were equilibrated against 20 mM Tris-HCl, pH 7.5, and concentrated to 1 mM final protein concentration before initiating crystallization trials. For crystallization of the peptide complexes, a 2-fold excess of peptide was added to the protein solution. Crystals were grown at 20 °C using the sitting drop vapor diffusion method. NCS-1 was crystallized in 0.1 M sodium cacodylate, pH 6.5, 0.2 M sodium acetate, and 30% (w/v) PEG 8000, similar to the conditions previously reported ([27]). […]
For the NCS-1·D2R complex, molecular replacement used the structure of human NCS-1 (human and rat NCS-1 have 99% sequence identity; PDB accession 1G8I) and PHASER ([31]), as implemented from within PHENIX ([32]). […] At this stage, electron density for the helix for chain B was readily apparent, and a model for the helix was built in manually using COOT ([33]). […]
The structure of the NCS-1·GRK1 complex was determined using the coordinates from the A chain of the NCS-1 apoprotein and the program MOLREP ([38]), as implemented from within the CCP4 program suite ([39]). […] Electron density for a single GRK1 peptide per NCS-1 monomer, in a helical conformation, was readily detectable. […]
Data for NCS-1ΔCT were processed using MOSFLM ([37]) and SCALA ([30]). […] The four molecular copies of NCS-1ΔCT in this crystal form were readily identified in this way. […]

Substance: TFNIEFRKAFLKILHC [reference compound]
- solubility ([1]; in water): insoluble in water

Substance: NCS-1ΔCT: C-terminal truncated mutant of NCS-1, residues Ser-178–Val-190 deleted
- NMR spectra of NCS-1ΔCT [2]: significant concentration-dependent line broadening
- solution state [3]: polydisperse

Substance: MDFGSLETVVANSAFIAARGSFDGS [GRK1 peptide, N terminus of GRK1, residues 1–25 (UniProt Q15835)]
- binding site on recoverin [4]: binding only in the N-lobe site
- aggregation [1]: propensity to aggregate
- buried surface area of peptide ([5]; GRK1 peptide in hydrophobic groove, PDB 5AFP): 921 Å^2
- copies of peptide bound per NCS-1 molecule ([5]; crystal structure, Ca2+/NCS-1, 2-fold excess of peptide): one
